Experimental findings from patent publication US12036319B2, “Polyvalent sting activating compositions and uses thereof” (The Board of Regents of the University of Texas System, priority 2020, dated 2024) are described below.

For assay [1], the system named is STING. The experiment in a line: Time course of STING puncta, signaling and degradation in GFP-STING MEF and THP1 cells. Format: cell-based. From the text:
(§1) Microscopy. […] In STING degradation assay, LysoTracker Red DND-99 (Thermo Scientific) was used to stain lysosomes in live cells. […] Samples were mounted in prolong gold antifade with Dapi stain (Thermo Scientific) and imaged using a Zeiss 700 confocal laser scanning microscope with a 63× oil objective. ImageJ was used to quantify co-localization by Pearson's correlation coefficient. Data are representative of at least twenty cells.
Western blot analysis. […] Briefly, cells were lysed in SDS sample buffer (with protease and phosphatase inhibitor cocktail) and heated for denaturation. […] Electro transfer was performed using 100 V for 60 min on ice. After transfer, the membrane was blocked either in 5% non-fat milk or BSA (phosphorylated protein) for 1 h at room temperature, and incubated with primary antibody overnight at 4° C. HRP-linked secondary antibody (Bio-Rad) was used for 1 h at room temperature before detection on X-ray film (GE Healthcare). Membrane was stripped in stripping buffer for 30 min and reused for […] (Sigma Aldrich) detection.
(§2) RT-qPCR. Total RNAs were extracted from cells or human tissues by using RNeasy mini kit (QIAGEN). RNA quantity and quality were confirmed using NanoDrop (DeNovix DS-11). Genomic DNA was removed and cDNA was synthesized using an iScript™ gDNA clear cDNA synthesis kit (Bio-Rad). Bio-Rad SoAdvanced™ universal SYBR green supermix and CFX connect real-time system were used for PCR analysis. Results were corrected by β-actin or GAPDH. DNA primers are listed as follows: • Mouse ifn-β: […]

Assay [2] relates to B16-F10 melanoma tumor model. The experiment in a line: Interferon-stimulated gene expression in B16-F10 tumor-bearing mice. In kind it is in vivo, mouse. How it is done:
RT-qPCR. […] Results were corrected by β-actin or GAPDH.
Mice were subcutaneously inoculated with B16F10 melanoma cells (1.0×10^5) or TC-1 cells (1.0×10^5) into the right flank. […] Mice were euthanized one-day post-injection, and tumors and draining lymph nodes were collected. Total RNAs were extracted by TRIzol (Invitrogen), and the expressions of interferon-stimulated genes (ifn-β, cxcl10, tnf-α, and irf7) were measured via RT-qPCR.

For assay [3], the system named is TC-1 tumors. The experiment in a line: Tumor therapy, TC-1 tumor model. In kind it is in vivo, mouse. The conditions noted are these: TC-1, intratumoral, four injections, versus 5% glucose. How it is done: Tumor therapy experiments. Mice were subcutaneously inoculated with MC38 cells (1.0×10^6) or TC-1 cells (1.0×10^5) into the right flank. Tumor size was measured every other day via a digital caliper, and tumor volume was calculated as 0.5×length×width^2. […] Mice were injected 3× in MC38 model and 4× in TC-1 model with treatments spaced 4 d apart. Mice were euthanized at a tumor burden endpoint of 2,000 mm^3.

Assay [4] has as its system resected human tissues (squamous cell carcinoma from the base of tongue, cervical tumor tissues, sentinel lymph node). The experiment in a line: STING activation in freshly resected human tissues. The conditions noted are these: ex vivo injection, 24 h at 37° C.; cGAMP 80 ng, PC7A 50 μg.
Description: as §2

For assay [5], the system named is STING R232H variant in THP1 cells. Description: IFN-β-Luc expression in THP1 cells harboring STING R232H. In kind it is cell-based, human. The source says:
(§3) WT or R232H THP-1 reporter cells were purchased from Invitrogen.

The test system of assay [6] is mutant STING-GFP in HEK293T cells. The experiment in a line: Downstream STING activation in HEK293T cells transfected with mutant STING plasmids. Format: cell-based, human.
Description: as §3, §1, §2

As for `Nc1nc2c(ncn2[C@@H]2O[C@@H]3COP(=O)(O)OC4C(O)[C@H](n5cnc6c(N)ncnc65)O[C@@H]4COP(=O)(O)OC2C3O)c(=O)[nH]1` (stereo partly drawn) [cGAMP, cyclic guanosine monophosphate-adenosine monophosphate], in assay [1], the “time of peak immune response after stimulation” value is listed as “around 6 h”. For the same compound, the “time to STING degradation” value in assay [1] (STING-GFP MEFs) is not above 12 h. In assay [1] (in the presence of brefeldin A (BFA, 10 μM)), the “p-TBK1/p-IRF3 production and proinflammatory cytokine expression” value is “fail to trigger p-TBK1/p-IRF3 production and proinflammatory cytokine expression”. Further, the “STING activation in draining lymph nodes” value in assay [2] (intratumoral injection, cGAMP high dose 2.5 μg) is “minimal STING activation”. Also, the “interferon-stimulated gene expression (ifn-β, cxcl10, tnf-α, irf7) in tumor” value in assay [2] (single intratumoral injection, 24 hours, PC7A 50 μg, cGAMP low dose 0.5 μg) is “failed to induce interferon-stimulated gene expressions”. For the same compound, in assay [3], the “extension of median survival” value came to 4 days. Besides, in assay [4], the “ifn-β and cxcl10 mRNA expression over control” value was “marginal effect”. Further, in assay [5], the IFN-β-Luc expression entry is “abrogated”. Also, the “condensate structures, TBK1 phosphorylation and ifn-β/cxcl10 expression” value in assay [6] was “did not impact cGAMP-mediated STING activation”.
